Values of other authors as cited in patent publication US20060127486A1, “Ceramic structures for prevention of drug diversion” (priority 2004, published 2006).

Set-up: reference not given here
Conditions: equianalgesic doses of various opioids, given as an aid to exact dose determination
For `COc1ccc2c3c1O[C@H]1C(=O)CC[C@H]4[C@@H](C2)N(C)CC[C@]314` [hydrocodone], the equianalgesic dose is listed as 15.0 mg.
In the case of `CN1CC[C@]23CCCC[C@H]2[C@H]1Cc1ccc(O)cc13` [levorphanol], the equianalgesic dose is given as 1.8 mg.
For `COc1ccc2c3c1O[C@H]1[C@@H](O)C=C[C@H]4[C@@H](C2)N(C)CC[C@@]341` [codeine], the equianalgesic dose is given as 90.0 mg.
In the case of `COc1ccc2c3c1O[C@H]1C(=O)CC[C@@]4(O)[C@@H](C2)N(C)CC[C@]314` [oxycodone], the equianalgesic dose is listed as 13.5 mg.
For `CCC(=O)C(CC(C)N(C)C)(c1ccccc1)c1ccccc1` (stereo not shown) [methadone], the equianalgesic dose is listed as 9.0 mg.

Same assay, conditions: in vivo
For `CN1CC[C@]23c4c5ccc(O)c4O[C@H]2[C@@H](O)C=C[C@H]3[C@H]1C5` [morphine], the equianalgesic dose is listed as 27.0 mg.
For `CCOC(=O)C1(c2ccccc2)CCN(C)CC1` [meperidine], the equianalgesic dose is listed as 135.0 mg.
